Laboratory results: PMC8688955 (Frontiers in Pharmacology, 2021)
Where two headings read alike, the source gives them in different places.

Experiments:
[1] = biological target: T1, CI-AMPARs (Rattus norvegicus, UniProt P19491, Q607R); assay: Whole-cell patch-clamp of kainate-induced currents in isolated hippocampal CA1 pyramidal neurons; format: cell-based, Wistar rat; settings: for % block: representative recording; for inhibition at 30 µM: 30 µM phenytoin, n = 7; for inhibition at 100 µM: 100 µM phenytoin, read-out: % inhibition; for inhibition at 50 µM: n = 6
T1 construct: activity against native calcium-permeable AMPA receptors (CP-AMPARs) and calcium-impermeable AMPA receptors (CI-AMPARs); endogenous in cells; host or cells: acutely isolated pyramidal neurons from the CA1 area of Wistar rat hippocampal slices
Method: All experimental procedures were approved by the Animal Care and Use Committee of the I.M. Sechenov Institute of Evolutionary Physiology and Biochemistry of the Russian Academy of Sciences. Wistar rats (13–19 days old) were anesthetized with sevoflurane and then decapitated. Maximum effort was made to minimize the number of animals used. Brains were removed quickly and cooled to 2–4°C in an ice bath. […] The antagonism of CI-AMPARs was studied on pyramidal neurons from the CA1 area of the hippocampus.
Series resistance of about 20 MΩ was compensated by 70–80% and monitored during experiments. Currents were recorded using an EPC-8 amplifier (HEKA Electronics, Lambrecht, Germany), filtered at 5 kHz, sampled, and stored on a personal computer. Drugs were applied using the RSC-200 perfusion system (BioLogic Science Instruments, Claix, France) under computer control. The solution exchange time in the whole-cell mode was 50–60 ms. […] The pipette solution contained (in mM) CsF 100, CsCl 40, NaCl 5, CaCl2 0.5, EGTA 5, and HEPES 10 (pH was adjusted to 7.2 with CsOH). Experiments were performed at room temperature (22–24°C). […] Lamotrigine, topiramate, levetiracetam, felbamate, carbamazepine, tiagabin, vigabatrin, zonisamide, and gabapentin were purchased from Tocris Bioscience (Bristol, United Kingdom). Perampanel was from MedChemExpress (Stockholm, Sweden). Kinetics of transient processes of more than 20-ms duration was approximated by exponential functions. Experiments were performed at −80 mV holding voltage. All experimental data are presented as mean ± SD estimated from at least four experiments. Significance of the effects was tested with paired t test. Differences were considered significant at p < 0.05. 3D structures of compounds were calculated by the ZMM software (zmmsoft.ca).

[2] = Solubility in the extracellular solution; format: physicochemical; settings: concentrations above 500 µM could not be tested
Method: The whole-cell patch-clamp technique was used for recording of membrane currents generated in response to applications of kainate. Series resistance of about 20 MΩ was compensated by 70–80% and monitored during experiments. Currents were recorded using an EPC-8 amplifier (HEKA Electronics, Lambrecht, Germany), filtered at 5 kHz, sampled, and stored on a personal computer. Drugs were applied using the RSC-200 perfusion system (BioLogic Science Instruments, Claix, France) under computer control. The solution exchange time in the whole-cell mode was 50–60 ms. The extracellular solution contained (in mM) NaCl 143, KCl 5, MgCl2 2.0, CaCl2 2.5, D-glucose 18, and HEPES 10 (pH was adjusted to 7.3 with HCl). The pipette solution contained (in mM) CsF 100, CsCl 40, NaCl 5, CaCl2 0.5, EGTA 5, and HEPES 10 (pH was adjusted to 7.2 with CsOH). Experiments were performed at room temperature (22–24°C). […] Lamotrigine, topiramate, levetiracetam, felbamate, carbamazepine, tiagabin, vigabatrin, zonisamide, and gabapentin were purchased from Tocris Bioscience (Bristol, United Kingdom). Perampanel was from MedChemExpress (Stockholm, Sweden). Kinetics of transient processes of more than 20-ms duration was approximated by exponential functions. Experiments were performed at −80 mV holding voltage. […] 3D structures of compounds were calculated by the ZMM software (zmmsoft.ca).

[3] = biological target: non-NMDA glutamate receptors; parameters: method as in Kawano et al., 1994; settings: expressed in Xenopus oocytes; ref Kawano et al., 1994; cited from earlier work
[4] = biological target: voltage-gated sodium channels; parameters: method as in Kuo and Bean, 1994; Lenkowski et al., 2007; settings: ref Kuo and Bean, 1994; Lenkowski et al., 2007; read-out: Affinity to inactivated states of sodium channels; cited from earlier work
[5] = double-pulse protocol, 30-s pause

T1 sequence (P19491 22-883 Q607R): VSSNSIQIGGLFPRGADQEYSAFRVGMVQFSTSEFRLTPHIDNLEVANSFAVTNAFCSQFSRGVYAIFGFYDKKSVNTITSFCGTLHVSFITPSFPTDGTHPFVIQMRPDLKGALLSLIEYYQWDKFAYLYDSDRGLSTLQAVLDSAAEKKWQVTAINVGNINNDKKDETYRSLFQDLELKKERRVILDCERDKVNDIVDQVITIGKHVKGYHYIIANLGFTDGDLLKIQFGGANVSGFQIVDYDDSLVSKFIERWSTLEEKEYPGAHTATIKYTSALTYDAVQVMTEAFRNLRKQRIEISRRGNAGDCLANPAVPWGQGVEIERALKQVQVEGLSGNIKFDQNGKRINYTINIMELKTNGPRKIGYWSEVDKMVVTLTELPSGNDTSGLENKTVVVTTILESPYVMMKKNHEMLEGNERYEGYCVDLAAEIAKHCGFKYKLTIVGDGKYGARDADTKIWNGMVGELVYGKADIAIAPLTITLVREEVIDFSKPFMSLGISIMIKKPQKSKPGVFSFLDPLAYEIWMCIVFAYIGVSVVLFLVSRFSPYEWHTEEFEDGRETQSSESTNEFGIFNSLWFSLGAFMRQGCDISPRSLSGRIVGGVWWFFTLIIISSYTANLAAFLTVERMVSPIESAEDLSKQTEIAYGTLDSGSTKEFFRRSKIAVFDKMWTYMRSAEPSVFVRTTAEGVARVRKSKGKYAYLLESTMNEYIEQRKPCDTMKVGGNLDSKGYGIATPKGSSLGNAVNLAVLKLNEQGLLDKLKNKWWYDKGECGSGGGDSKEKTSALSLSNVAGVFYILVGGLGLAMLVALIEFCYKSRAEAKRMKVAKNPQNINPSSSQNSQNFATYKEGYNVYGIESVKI

O=C1NC(=O)C(c2ccccc2)(c2ccccc2)N1 [Phenytoin]
% block ([1]; 10 μM phenytoin, Figure 1A): 28% | inhibition at 30 µM ([1]; 50 µM kainate): 55 ± 3% | inhibition at 30 µM ([1]; 500 µM kainate): 40 ± 7% | % block ([1]; 30 μM phenytoin, Figure 1A): 52% | Washout kinetics τ ([1]; 50 µM phenytoin): 1,100 ± 200 ms | Activity drop in the presence of cyclothiazide ([1]; 100 µM cyclothiazide, 50 µM kainate): Yes | inhibition at 100 µM ([1]; 50 µM kainate, absence of cyclothiazide): 74 ± 4% | inhibition at 100 µM ([1]; 50 µM kainate, presence of 100 µM cyclothiazide): 21 ± 7% | % block ([1]; 100 μM phenytoin, Figure 1A): 75% | inhibition at 300 µM ([1]; 300 µM compound, read-out: percentage of inhibition at 300-µM concentration): ≥ 80% | τ of the testing response to kainate in the trapping protocol ([1]; 300 µM phenytoin, 500 µM kainate, n = 4): 81 ± 17 ms | inhibition at 300 µM ([1]; 300 µM phenytoin, coapplication with agonist, n = 5, read-out: % inhibition of open AMPA receptor channels): 87 ± 5% | inhibition at 300 µM ([1]; 300 µM phenytoin, preapplication without agonist, n = 5, read-out: % inhibition of closed AMPA receptor channels): 37 ± 7% | % block ([1]; 300 μM phenytoin, Figure 1A): 87% | inhibition of kainate-induced currents ([1]; 500 µM phenytoin, highest concentration tested): almost complete inhibition | Activity drop at high (500 µM) kainate concentration ([1]; 50 vs 500 µM kainate): Yes | decrease in the % of inhibition with the increase in agonist concentration ([1]; 50 vs 500 µM kainate): 10–15% | % block ([1]; Phenytoin, 30 μM, Ka 50 μM, Figure 3A): 57% | % block ([1]; Phenytoin, 30 μM, Ka 500 μM, Figure 3A): 44% | % block ([1]; Phenytoin, 100 μM, Kainate, 50 μM + cyclothiazide, 100 μM, Figure 5C): 19% | % block ([1]; Phenytoin, 100 μM, Kainate, 50 μM, Figure 5B): 74% | Difference in the % of inhibition in coapplication and preapplication protocols ([1]; coapplication with kainate vs preapplication without kainate): Yes | More active against CI-AMPARs ([1]; comparison of CI-AMPARs and CP-AMPARs): Yes | Trap in kainate 100 µM [1, 5]: Yes | Trap in kainate 500 µM [1, 5]: questionable | Trap in kainate 100 µM ([1]; double-pulse protocol, 30-s pause, listed as phenytoin): pronounced trapping | Hill coefficient ([1]; inhibition of CI-AMPARs, Hill equation): 0.9 ± 0.2 | inhibition at 50 µM ([1]; pH 7.4, 50 µM phenytoin, pH 7.4): 60 ± 3% | pH-dependence ([1]; pH 7.4 vs 9.0): Yes | inhibition at 50 µM ([1]; pH 9, 50 µM phenytoin, pH 9.0): 28 ± 8% | % block ([1]; phenytoin 50 μM, pH 7.4, Kainate, 100 μM, Figure 10A): 62% | % block ([1]; phenytoin 50 μM, pH 9.0, Kainate, 100 μM, Figure 10A): 29% | solubility in the extracellular solution [2]: poor solubility | IC50 [3]: ≥ 100 µM | Kd [4]: 7 to 21 µM
